Test results reported in patent US8329918B2, “Selective alpha 2B/2C agonists” (priority 2009, dated 2012).
Where two headings read alike, the source gives them in different places.

Columns and labels:
[1] = tested on: diabetic patient with moderate neuropathy in the right leg; assay: Treating diabetic peripheral neuropathy in a patient; assay type: in vivo; conditions: topical composition on the right leg twice daily; two months later
Procedure: A topical composition including N-(2-methoxybenzyl)-4,5-dihydrooxazol-2-amine is administered on the right leg of the patient twice daily.
III. […] A topical composition including N-(2-methoxybenzyl)-4,5-dyhydrothizaol-2-amine is administered on the right leg of the patient twice daily.
III. […] A topical composition including N-(3-chloro-2-fluorobenzyl)-4,5-dihydrooxazol-2-amine is administered on the right leg of the patient twice daily.

[2] = tested on: patient with moderate post-herpetic neuralgia pain; assay: Treating post-herpetic neuralgia pain in a patient; assay type: in vivo; conditions: tablet twice daily as needed
Excerpt: A tablet including N-(2-methoxybenzyl)-4,5-dihydrooxazol-2-amine is delivered taken by the patient twice daily as needed for the pain.
II. […] A tablet including N-(2-methoxybenzyl)-4,5-dyhydrothizaol-2-amine is delivered taken by the patient twice daily as needed for the pain.
III. […] A tablet including N-(3-chloro-2-fluorobenzyl)-4,5-dihydrooxazol-2-amine is delivered taken by the patient twice daily as needed for the pain.

[3] = tested on: patient with moderate intraocular pressure in the right eye; assay: Treating elevated intraocular pressure in a patient; assay type: in vivo; conditions: ophthalmic composition to the right eye twice daily; two months later
Excerpt: An ophthalmic composition including N-(2-methoxybenzyl)-4,5-dihydrooxazol-2-amine is delivered to the right eye of the patient twice daily.
II. […] An ophthalmic composition including N-(2-methoxybenzyl)-4,5-dyhydrothizaol-2-amine is delivered to the right eye of the patient twice daily.
III. […] An ophthalmic composition including N-(3-chloro-2-fluorobenzyl)-4,5-dihydrooxazol-2-amine is delivered to the right eye of the patient twice daily.

[4] = target: T1, alpha2C receptor (Homo sapiens, UniProt P18825); assay: RSAT assay, alpha 2C; assay type: cell-based; conditions: for (rel. efficacy) Alpha 2C: ratio of maximal effect to standard full agonist brimonidine (UK14304)
T1 construct: expressed in transfected cells; host or cells: NIH-3T3
T1 sequence (P18825 1-462): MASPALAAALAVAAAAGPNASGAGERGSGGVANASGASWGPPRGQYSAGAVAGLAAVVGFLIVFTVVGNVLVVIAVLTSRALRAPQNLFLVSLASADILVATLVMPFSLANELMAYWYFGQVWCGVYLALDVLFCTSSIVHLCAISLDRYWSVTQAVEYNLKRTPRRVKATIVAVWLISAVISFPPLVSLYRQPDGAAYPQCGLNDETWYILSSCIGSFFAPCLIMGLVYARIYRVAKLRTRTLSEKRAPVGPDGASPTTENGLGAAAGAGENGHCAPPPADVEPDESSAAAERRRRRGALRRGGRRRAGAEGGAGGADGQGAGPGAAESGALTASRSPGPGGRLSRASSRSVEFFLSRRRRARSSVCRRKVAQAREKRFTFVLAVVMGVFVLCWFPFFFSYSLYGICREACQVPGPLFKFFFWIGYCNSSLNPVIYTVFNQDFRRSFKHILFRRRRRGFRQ
Procedure: (§1) Selected presently described compounds were synthesized and tested for alpha adrenergic activity using the Receptor Selection and Amplification Technology (RSAT) assay. Cells expressing each of the alpha-2-adrenergic receptors alone were incubated with various compounds and a receptor-mediated growth response was measured. The compound's activity is expressed as its relative efficacy compared to a standard full agonist.
(§2) The RSAT assay measures a receptor-mediated loss of contact inhibition that results in selective proliferation of receptor-containing cells in a mixed population of confluent cells. The increase in cell number is assessed with an appropriate transfected marker gene such as β-galactosidase, the activity of which can be easily measured in a 96-well format. Receptors that activate the G protein, Gq, elicit this response. Alpha2 receptors, which normally couple to Gi, activate the RSAT response when coexpressed with a hybrid Gq protein that has a Gi receptor recognition domain, called Gq/i5.
(§3) NIH-3T3 cells are plated at a density of 2×10^6 cells in 15 cm dishes and maintained in Dulbecco's modified Eagle's medium supplemented with 10% calf serum. One day later, cells are cotransfected by calcium phosphate precipitation with mammalian expression plasmids encoding p-SV-β-galactosidase (5-10 μg), receptor (1-2 μg) and G protein (1-2 μg). 40 μg salmon sperm DNA may also be included in the transfection mixture. Fresh media is added on the following day and 1-2 days later, cells are harvested and frozen in 50 assay aliquots. Cells are thawed and […] added to […] aliquots of various concentrations of drugs in triplicate in 96-well dishes. Incubations continue 72-96 hr at 37° C. After washing with phosphatebuffered saline, β-galactosidase enzyme activity is determined by adding 200 μl of the chromogenic substrate (consisting of 3.5 mM o-nitrophenyl-β-D-galactopyranoside and 0.5% nonidet P-40 in phosphate buffered saline), incubating overnight at 30° C. and measuring optical density at 420 nm. The absorbance is a measure of enzyme activity, which depends on cell number and reflects a receptor-mediated cell proliferation. The EC50 and maximal effect of each drug at each alpha2 receptor is determined. The efficacy or intrinsic activity is calculated as a ratio of the maximal effect of the drug to the maximal effect of a standard full agonist for each receptor subtype. Brimonidine, also called UK14304, is used as the standard agonist for the alpha2A, alpha2B, and alpha2C receptors.
(§4) The compounds activity is expressed as its relative efficacy compared to a standard full agonist.

[5] = target: T2, alpha2A receptor (Homo sapiens, UniProt P08913); assay: RSAT assay, alpha 2A; assay type: cell-based; conditions: for (rel. efficacy) Alpha 2A: ratio of maximal effect to standard full agonist brimonidine (UK14304)
T2 sequence (P08913 1-465): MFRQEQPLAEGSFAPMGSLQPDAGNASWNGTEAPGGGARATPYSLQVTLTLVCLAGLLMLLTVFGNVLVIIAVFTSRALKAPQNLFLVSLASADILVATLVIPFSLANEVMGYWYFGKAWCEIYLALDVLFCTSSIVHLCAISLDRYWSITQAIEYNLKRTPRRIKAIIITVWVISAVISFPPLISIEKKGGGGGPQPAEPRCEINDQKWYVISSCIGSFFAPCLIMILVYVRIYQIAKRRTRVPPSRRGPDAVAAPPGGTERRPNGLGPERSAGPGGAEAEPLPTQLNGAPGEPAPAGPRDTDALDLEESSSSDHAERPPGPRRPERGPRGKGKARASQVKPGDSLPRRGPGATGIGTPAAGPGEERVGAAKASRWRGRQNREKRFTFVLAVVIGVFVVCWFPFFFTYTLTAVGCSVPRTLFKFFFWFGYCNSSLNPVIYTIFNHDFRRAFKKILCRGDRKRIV
Procedure: as §1, §2, §3, §4

[6] = target: T3, alpha2B receptor (Homo sapiens, UniProt P18089); assay: RSAT assay, alpha 2B; assay type: cell-based; conditions: for (rel. efficacy) Alpha 2B: ratio of maximal effect to standard full agonist brimonidine (UK14304)
T3 construct: expressed in transfected cells; host or cells: NIH-3T3
T3 sequence (P18089 1-450): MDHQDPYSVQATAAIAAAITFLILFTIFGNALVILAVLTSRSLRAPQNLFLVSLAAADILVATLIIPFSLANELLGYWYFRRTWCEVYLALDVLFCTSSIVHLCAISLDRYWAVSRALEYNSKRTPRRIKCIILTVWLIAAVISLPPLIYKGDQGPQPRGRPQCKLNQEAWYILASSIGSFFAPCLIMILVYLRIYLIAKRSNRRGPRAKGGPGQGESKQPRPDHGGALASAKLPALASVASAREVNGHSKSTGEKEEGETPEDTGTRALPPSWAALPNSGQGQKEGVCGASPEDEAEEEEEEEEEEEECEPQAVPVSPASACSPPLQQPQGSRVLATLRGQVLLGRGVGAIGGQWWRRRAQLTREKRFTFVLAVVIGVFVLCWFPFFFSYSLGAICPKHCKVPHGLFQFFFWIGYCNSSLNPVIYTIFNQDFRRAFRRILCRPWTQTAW
Procedure: as §1, §2, §3, §4

[7] = RSAT, NIH-3T3 cells, NA = not active, read-out: EC50 (nM) Alpha 2A
[8] = RSAT, NIH-3T3 cells, NA = not active, read-out: EC50 (nM) Alpha 2C

Row | Compound | neuropathy of the patient [1] | patient-reported pain [2] | intraocular pressure of the patient [3] | EC50 [4] | (rel. efficacy) Alpha 2C ([4]; RSAT) | EC50 [5, 7] | (rel. efficacy) Alpha 2A ([5]; RSAT) | EC50 [6] | (rel. efficacy) Alpha 2B ([6]; RSAT) | EC50 [4, 8] | EC50 [5] | EC50 ([6]; RSAT, NIH-3T3 cells, NA = not active, read-out: EC50 (nM) Alpha 2B)
1 | COc1ccccc1CNC1=NCCO1 [N-(2-methoxybenzyl)-4,5-dihydrooxazol-2-amine] | reduction neuropathy | reduction of pain | normal intraocular pressure | – | – | – | – | – | – | – | – | –
2 | COc1ccccc1CNC1=NCCS1 [N-(2-methoxybenzyl)-4,5-dihydrothiazol-2-amine] | reduction neuropathy | reduction of pain | normal intraocular pressure | – | – | – | – | – | – | – | – | –
3 | Fc1c(Cl)cccc1CNC1=NCCO1 [N-(3-chloro-2-fluorobenzyl)-4,5-dihydrooxazol-2-amine] | reduction neuropathy | reduction of pain | normal intraocular pressure | – | – | – | – | – | – | – | – | –
4 | Cc1cccc(CNC2=NCCS2)c1Cl | – | – | – | 32 nM | 1.03 | 281 nM | 0.4 | 11 nM | 1.27 | – | – | –
5 | COc1ccc(Cl)cc1CNC1=NCCS1 | – | – | – | – | 0.55 | 2250 nM | 0.38 | 77 nM | 0.85 | 465 nM | – | –
6 | Fc1c(Br)cccc1CNC1=NCCS1 | – | – | – | 182 nM | 0.64 | – | 0.44 | 34 nM | 0.98 | – | 1380 nM | –
7 | Clc1ccc(Br)c(CNC2=NCCS2)c1 | – | – | – | – | 0.69 | 2270 nM | 0.45 | – | 1.04 | 855 nM | – | 250 nM
